Measured values: ChEMBL document CHEMBL5055619, “Tetrahydrofuran-Based Transient Receptor Potential Ankyrin 1 (TRPA1) Antagonists: Ligand-Based Discovery, Activity in a Rodent Asthma Model, and Mechanism-of-Action via Cryogenic Electron Microscopy” (J Med Chem, 2021)
Converted amounts (≈) assume the structure as drawn.

Tests used:
[1] = Antagonist activity at human TRPA1 expressed in CHO cells assessed as cinnamaldehyde-induced calcium flux measured after 90 mins by FLIPR assay; type: cell-based; conditions: 1.5 h
[2] = Lipophilicity, logD of compound; type: physicochemical; conditions: octanol/water
[3] = Kinetic solubility of the compound; type: physicochemical; conditions: read-out: Kinetic_solubility
[4] = Metabolic stability in human liver microsomes assessed as clearance by LC/MS-MS analysis; type: ADME, Microsome
[5] = Metabolic stability in rat liver microsomes assessed as clearance by LC/MS-MS analysis; type: ADME, Microsome
[6] = Antagonist activity at rat TRPA1 expressed in CHO cells assessed as cinnamaldehyde-induced calcium flux measured after 90 mins by FLIPR assay; type: cell-based; conditions: 1.5 h

IC50 [1] [µM]	logD [2]	solubility kinetic [3] [µM]	CLhep predicted [4] [L/h/kg]	CLhep predicted [5] [L/h/kg]	IC50 [6] [µM]	Compound
0.032	2.6	< 1	–	–	–	Cn1cnc2ncn(Cc3nc([C@@H]4[C@@H]5Cc6c(Cl)cccc6[C@@H]54)no3)c(=O)c21
0.1	1.9	–	0.72	2.1	0.08	Cn1cnc2ncn(Cc3nc(CCc4ccc(Cl)cc4)no3)c(=O)c21
0.0019	2.7	1.4 (≈ 0.541 µg/mL)	–	–	–	Cn1cnc2ncn(Cc3nc([C@H]4[C@@H]5C=C(c6ccccc6)C[C@@H]54)no3)c(=O)c21
4.6	1.3	–	0.66	2.04	–	Cn1cnc2ncn(Cc3nn(CCOc4cccc(Cl)c4)c(=O)o3)c(=O)c21
0.0076	–	–	0.258	0.54	–	Cn1cnc2ncn(Cc3nc([C@@H]4CO[C@@H](c5ccc(F)cc5)C4)no3)c(=O)c21
0.075	2.4	–	0.6	0.78	–	O=c1c2cccnc2ncn1Cc1nc([C@H]2[C@@H]3CN(c4cc(Cl)ccn4)C[C@@H]32)no1
0.0096	2.4	–	0.72	2.16	–	Cn1cnc2ncn(Cc3nn([C@@H]4CC[C@@H](c5ccc(Cl)cc5)C4)c(=O)o3)c(=O)c21
0.41	1.8	–	0.48	1.44	–	Cn1cnc2ncn(Cc3nn([C@@H]4CC[C@@H](Oc5cccc(F)c5)C4)c(=O)o3)c(=O)c21
0.014	1.3	–	0.96	2.64	–	Cn1cnc2ncn(Cc3nn(CCCOc4cccc(Cl)c4)c(=O)o3)c(=O)c21
0.05	2.6	–	0.84	1.62	–	Cc1ncn2ncn(Cc3nc([C@H]4[C@@H]5CN(c6cccc(Cl)c6)C[C@@H]54)no3)c(=O)c12
1.9	2.7	54 (≈ 21 µg/mL)	–	–	–	Cn1cnc2ncn(Cc3nc([C@H]4[C@@H]5C[C@H](c6ccccc6)C[C@@H]54)no3)c(=O)c21
> 20	2.6	–	0.258	1.14	–	Cn1cnc2ncn(Cc3nn([C@H]4CC[C@H](c5ccc(Cl)cc5)CC4)c(=O)o3)c(=O)c21
0.054	2.7	–	0.84	1.62	–	O=c1c2cccnc2cnn1Cc1nc([C@H]2[C@@H]3CN(c4cc(Cl)ccn4)C[C@@H]32)no1
0.0073	2.2	–	0.36	0.66	–	Cn1cnc2ncn(Cc3nn([C@H]4C[C@H](Oc5cccc(Cl)c5)C4)c(=O)o3)c(=O)c21
